Measured values: patent US7928090B2, “External preparation composition” (Lion Corporation, priority 2002, dated 2011)

How the values were obtained:
[1] = test system: guinea pig skin; experiment: Continuous irritative test of guinea pig skin (Draize method); type: in vivo, guinea pig (Hartley series); conditions: 0.5% in ethanol/propylene glycol (7:3), 3 days straight, full marks 8 points
Description: Each left and right two spots (4 spots/head) of applying parts having a frame of 2 cm×2 cm were provided on the back of a shaved guinea pig (Hartley series, 7 weeks of age, female, N=10), and each 50 μL of an ethanol/propylene glycol (7:3) solution containing 0.5% of the respective acyl glucosamine derivatives shown in the following Table 1 was applied once a day on the respective frames.
A skin irritative score after application for 3 days straight was evaluated according to the following evaluation criteria (Draize method). The above irritative score was shown by the total points (full marks: 8 points) of erythema and edema.
Evaluation Criteria of Skin Irritative Score:
3: middle to strong erythema
4: very strong erythema to crust
1: very slight edema formation
2: slight edema formation
3: middle edema formation
4: strong edema formation

[2] = test system: back skin of hairless mice irradiated with UVB; experiment: Wrinkle-improving test; type: in vivo, hairless mice (hos: HR-1); conditions: 0.05% in ethanol/propylene glycol (7:3), 100 μL once a day, five times a week, 8 weeks; versus control group
Description: Four (4) hairless mice per 1 group (hos: HR-1, 10 weeks of age, female) were irradiated on the back skin once a day with UVB at 50 mJ/cm^2 five times a week over a period of 10 weeks. After finishing irradiation, each 100 μL of an ethanol/propylene glycol (7:3) solution containing 0.05% of various acyl glucosamine derivatives shown in the following Table 3 was applied on the mouse back in a frequency of once a day and five times a week over 8 weeks.
After finishing application for 8 weeks, the degree of wrinkles was visually evaluated according to the following evaluation criteria and calculation equation. A control group applied with the ethanol/propylene glycol (7:3) solution was evaluated as a control in the same manner.
Evaluation Criteria of the Degree of Wrinkles:
Evaluation point 0: a lot of fine striations is present on the back and the flank; fine striations run in a direction from the head to the tail; and the striations appear or disappear with the motion of the mouse.
Evaluation point 1: all fine striations along the spine are not observed; a few shallow and coarse wrinkles run perpendicularly to the head-to-tail direction; and the striations appear or disappear with the motion of the mouse.
The respective bodies were evaluated by an evaluation point of a 0.5 unit to calculate an average point for the respective groups, and the wrinkle-improving rate was calculated for the respective groups according to the following equation (II). Wrinkle-improving rate (%)=[(average value of the control group−average value of a glucosamine derivative-applied group)/(average value of the control group)]×100 (II)

[3] = test system: back skin of hairless mice irradiated with UVB; experiment: Coarse texture-improving test; type: in vivo, hairless mice (hos: HR-1); conditions: 0.05% in ethanol/propylene glycol (7:3), 100 μL, 4 weeks; texture intersection points relative to non-irradiated group (control 24)
Description: Four (4) hairless mice per 1 group (hos: HR-1, 10 weeks of age, female) were irradiated on the back skin once a day with UVB at 40 mJ/cm^2 three times a week over a period of 6 weeks. After finishing irradiation, each 100 μL of an ethanol/propylene glycol (7:3) solution containing 0.05% of various acyl glucosamine derivatives shown in the following Table 4 or an ethanol/propylene glycol (7:3) solution as a control was applied on the mouse back in a frequency of once a day and five times a week over 4 weeks.
After finishing application, a replica agent (brand name SILFLO®; manufactured by UK FLEXICO DEVELOPMENTS LTD.) was used to obtain a replica of a mouse back skin. A replica of a UV-non-irradiated group (4 heads) was obtained as a control in the same manner.
The enlarged photographs of the respective replicas were taken through a macro lens (magnification: four times), and the photographs were used to evaluate “coarsening of the texture”.
The coarseness of the texture was defined by a “number of texture intersection point”, wherein a point in which three or more sulci cutis are joined is counted as one intersection point, and the number of the texture intersection points present in a square of 1 cm×1 cm was counted on the replica photograph.
An average point for the respective groups was calculated, and the texture-improving rate was calculated according to the following equation (III). Texture-improving rate (%)=[(number of texture intersection of applied group)/(number of texture intersection point of non-irradiated group)]×100 (III)

[4] = test system: acne patients; experiment: Acne-improvement evaluation; type: in vivo, human; conditions: essence with 0.05%, one month; for Evaluation X (worsened), number of subjects / Evaluation Δ (no change), number of subjects / Evaluation ⊚ (notably improved), number of subjects / Evaluation ◯ (improved), number of subjects: applied on face several times a day
Description: Prepared was an essence for acne shown in the following composition example in which 0.05% of various acyl glucosamine derivatives shown in the following Table 6 was blended. An essence which was not blended with an acyl glucosamine derivative was prepared as a control.
Sixty acne patients were picked up as subjects to apply everyday the respective essences on the faces thereof several times a day, and the therapeutic effect against the acnes was visually evaluated a month later according to four degrees of the following evaluation criteria.
In the four degree evaluation described above, improvement (∘) or better effect (⊚) was regarded as “effective for treating acnes”, and the subjects showing a treating effect were shown by a numerical value (percentage).

[5] = test system: skin roughness in the inside of a forearm of a human being; experiment: Skin roughness-improving test (SDS-induced skin roughness); type: in vivo; conditions: hydrophilic ointment with 0.05%, twice a day, 3 days; conductance relative to ointment with no tested substance = 100
Description: A 10% SDS solution was used to artificially form a skin roughness in the inside of a forearm of a human being, and a hydrophilic ointment blended with 0.05% of various acyl glucosamine derivatives shown in the following Table 5 was applied thereon twice a day.
The skin roughness-improving degree observed 3 days later after application was evaluated using a change in a stratum corneum water content as an index. The stratum corneum water content is measured in terms of a conductance (μS). The improving degree was shown by a relative value, wherein the conductance observed when applying the hydrophilic ointment blended with no acyl glucosamine derivative was set at 100, and the skin roughness-improving rate was calculated according to the following equation (IV). Skin roughness-improving rate (%)=[(conductance observed when applying the ointment blended with the tested substance)/(conductance observed when applying the ointment blended with no tested substance)]×100 (IV)

[6] = test system: pigmentation on the backs of color guinea pigs; experiment: Whitening evaluation (UV-induced pigmentation); type: in vivo; parameters: key: +++: notably improved; ++: improved; +: a little improved; ±: no change; conditions: 0.05% in ethanol/propylene glycol (7:3), 30 μL once a day, five times a week, 4 weeks; visual change in pigmentation
Description: Back body hair of color guinea pigs were shaved by means of a hair clipper and a shaver, and they were irradiated with UV rays once a day, 4 times a week and 8 times in total, whereby 4 parts of pigmentation having an area of about 2.25 cm^2 were formed on the backs of the respective guinea pigs.
Each 30 μL of an ethanol/propylene glycol (7:3) solution containing 0.05% of various acyl glucosamine derivatives shown in the following Table 7 was applied thereon in a frequency of once a day and five times a week over 4 weeks, and a change in the pigmentation was visually evaluated according to four degrees of the following evaluation criteria. The solution containing no acyl glucosamine derivative was used for a comparative example.

[7] = Table 1, 50 μL once a day, total of erythema and edema

CC(=O)OC[C@H]1OC(OC(C)=O)[C@H](NC(=O)/C=C(C)/C=C/C=C(C)/C=C/C2=C(C)CCCC2(C)C)[C@@H](OC(C)=O)[C@@H]1OC(C)=O (single isomer, unassigned) [1,3,4,6-tetra-O-acetyl-N-retinoyl-D-glucosamine (9-cis isome] [listing 1 of 2 here]
Draize score ([1]; Table 2, by stereoisomer ratio): 0.0 points

CC(=O)OC[C@H]1OC(OC(C)=O)[C@H](NC(=O)/C=C(C)/C=C/C=C(C)/C=C/C2=C(C)CCCC2(C)C)[C@@H](OC(C)=O)[C@@H]1OC(C)=O (single isomer, unassigned) [1,3,4,6-tetra-O-acetyl-N-retinoyl-D-glucosamine (9-cis isome] [listing 2 of 2 here]
Draize score ([1]; Table 2, by stereoisomer ratio): 0.0 points

CC(=O)OC[C@H]1OC(OC(C)=O)[C@H](NC(=O)/C=C(C)/C=C/C=C(C)/C=C/C2=C(C)CCCC2(C)C)[C@@H](OC(C)=O)[C@@H]1OC(C)=O (single isomer, unassigned) [1,3,4,6-tetra-O-acetyl-N-retinoyl-D-glucosamine (13-cis isom]
Draize score ([1]; Table 2, by stereoisomer ratio): 0.0 points

CC(=O)OC[C@H]1OC(OC(C)=O)[C@H](NC(=O)/C=C(C)/C=C/C=C(C)/C=C/C2=C(C)CCCC2(C)C)[C@@H](OC(C)=O)[C@@H]1OC(C)=O (single isomer, unassigned) [1,3,4,6-tetra-O-acetyl-N-retinoyl-D-glucosamine (cis isomer/]
Draize score ([1]; Table 2, by stereoisomer ratio): 0.0 points

CC(C=CC1=C(C)CCCC1(C)C)=CC=CC(C)=CC(=O)N[C@H]1C(O)O[C@H](CO)[C@@H](O)[C@@H]1O (single isomer, unassigned) [N-retinoyl-D-glucosamine (9-cis isomer/13-cis isomer/trans i]
Draize score [1, 7]: 0.1 points

CC(C=CC1=C(C)CCCC1(C)C)=CC=CC(C)=CC(=O)N[C@H]1C(O)O[C@H](CO)[C@@H](O)[C@@H]1O (single isomer, unassigned) [N-retinoyl-D-glucosamine (9-cis isomer/trans isomer = 0.5/99.5), N-retinoyl-D-glucosamine]
Draize score ([1]; Table 2, by stereoisomer ratio): 0.1 points

CC(C=CC1=C(C)CCCC1(C)C)=CC=CC(C)=CC(=O)N[C@H]1C(O)O[C@H](CO)[C@@H](O)[C@@H]1O (single isomer, unassigned) [N-retinoyl-D-glucosamine (13-cis isomer/trans isomer = 0.5/99.5), N-retinoyl-D-glucosamine]
Draize score ([1]; Table 2, by stereoisomer ratio): 0.0 points

CC(C=CC1=C(C)CCCC1(C)C)=CC=CC(C)=CC(=O)N[C@H]1C(O)O[C@H](CO)[C@@H](O)[C@@H]1O (single isomer, unassigned) [N-retinoyl-D-glucosamine (cis isomer/trans isomer = 0/100), N-retinoyl-D-glucosamine]
Draize score ([1]; Table 2, by stereoisomer ratio): 0.0 points

CC(C=CC1=C(C)CCCC1(C)C)=CC=CC(C)=CC(=O)N[C@H]1C(O)O[C@H](CO)[C@@H](O)[C@@H]1O (single isomer, unassigned) [N-retinoyl-D-glucosamine]
Wrinkle-improving rate [2]: 89% | Texture-improving rate [3]: 75% | Evaluation X (worsened), number of subjects [4]: 0 | Evaluation Δ (no change), number of subjects [4]: 0 | Evaluation ⊚ (notably improved), number of subjects [4]: 4 | Evaluation ◯ (improved), number of subjects [4]: 2 | Acne treating effect ([4]; percentage of subjects rated improved or better): 100% | Skin roughness-improving rate [5]: 127% | Whitening-improving effect [6]: +++

CC(=O)OC[C@H]1OC(OC(C)=O)[C@H](NC(=O)/C=C(C)/C=C/C=C(C)/C=C/C2=C(C)CCCC2(C)C)[C@@H](OC(C)=O)[C@@H]1OC(C)=O (stereo partly drawn) [1,3,4,6-tetra-O-acetyl-N-retinoyl-D-glucosamine]
Draize score [1, 7]: 0.0 points

CC(C)CCCCCCCCCCCCCCC(=O)N[C@H]1C(O)O[C@H](CO)[C@@H](O)[C@@H]1O (stereo partly drawn) [N-isostearoyl-D-glucosamine]
Draize score [1, 7]: 0.1 points | Evaluation X (worsened), number of subjects [4]: 0 | Evaluation Δ (no change), number of subjects [4]: 2 | Evaluation ⊚ (notably improved), number of subjects [4]: 0 | Evaluation ◯ (improved), number of subjects [4]: 3

CCCCCCCCCCCC(=O)N[C@H]1C(O)O[C@H](CO)[C@@H](O)[C@@H]1O (stereo partly drawn) [N-lauroyl-D-glucosamine]
Draize score [1, 7]: 0.1 points | Evaluation X (worsened), number of subjects [4]: 1 | Evaluation Δ (no change), number of subjects [4]: 1 | Evaluation ⊚ (notably improved), number of subjects [4]: 0 | Evaluation ◯ (improved), number of subjects [4]: 1

CCCCC/C=C\C/C=C\CCCCCCCC(=O)N[C@H]1C(O)O[C@H](CO)[C@@H](O)[C@@H]1O (stereo partly drawn) [N-linoleoyl-D-glucosamine]
Draize score [1, 7]: 0.3 points | Evaluation X (worsened), number of subjects [4]: 1 | Evaluation Δ (no change), number of subjects [4]: 3 | Evaluation ⊚ (notably improved), number of subjects [4]: 0 | Evaluation ◯ (improved), number of subjects [4]: 1

CCCCCCCC/C=C\CCCCCCCC(=O)N[C@H]1C(O)O[C@H](CO)[C@@H](O)[C@@H]1O (stereo partly drawn) [N-oleoyl-D-glucosamine]
Draize score [1, 7]: 0.2 points | Evaluation X (worsened), number of subjects [4]: 0 | Evaluation Δ (no change), number of subjects [4]: 2 | Evaluation ⊚ (notably improved), number of subjects [4]: 0 | Evaluation ◯ (improved), number of subjects [4]: 3

CC1=C(/C=C/C(C)=C/C=C/C(C)=C/C(=O)O)C(C)(C)CCC1 [Retinoic acid, reference compound]
Draize score [1, 7]: 8.0 points
